Test results taken from ChEMBL document CHEMBL4118090, “Dihydrothieno-pyridin-one and Tetrahydrothieno-azepinone Inhibitors of Enhancer of Zeste Homologue 2” (ACS Med Chem Lett, 2017).

biological target: Histone-lysine N-methyltransferase EZH2 (Homo sapiens, UniProt Q15910); assay: Inhibition of methyltransferase activity of flag-tagged EZH2 in human PRC2 complex expressed in Sf9 insect cells using biotinylated histone H3K27 peptide as substrate after 60 mins in presence of 3H-SAM by scintillation proximity assay
Sequence (Q15910 whole entry): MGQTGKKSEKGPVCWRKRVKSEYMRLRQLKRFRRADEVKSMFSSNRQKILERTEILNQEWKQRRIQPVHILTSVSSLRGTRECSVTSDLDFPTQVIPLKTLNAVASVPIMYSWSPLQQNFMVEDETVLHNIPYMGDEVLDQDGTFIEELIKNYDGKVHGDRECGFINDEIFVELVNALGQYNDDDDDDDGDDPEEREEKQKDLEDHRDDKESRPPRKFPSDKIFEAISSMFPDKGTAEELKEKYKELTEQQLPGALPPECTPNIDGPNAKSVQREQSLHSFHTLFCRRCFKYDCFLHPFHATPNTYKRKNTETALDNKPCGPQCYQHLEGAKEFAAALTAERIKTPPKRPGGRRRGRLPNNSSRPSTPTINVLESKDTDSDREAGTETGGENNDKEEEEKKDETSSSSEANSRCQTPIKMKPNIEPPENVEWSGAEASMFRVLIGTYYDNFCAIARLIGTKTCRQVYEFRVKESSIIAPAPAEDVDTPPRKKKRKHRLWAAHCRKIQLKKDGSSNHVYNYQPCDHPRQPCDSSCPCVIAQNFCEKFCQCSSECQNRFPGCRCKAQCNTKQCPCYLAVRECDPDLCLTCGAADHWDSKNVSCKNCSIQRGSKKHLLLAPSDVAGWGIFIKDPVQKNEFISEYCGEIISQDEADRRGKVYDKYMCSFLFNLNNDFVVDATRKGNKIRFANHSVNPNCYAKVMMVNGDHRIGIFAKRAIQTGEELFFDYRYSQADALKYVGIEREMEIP

Compound	IC50 [nM]
CC[C@@H](c1sc2c(c1C)C(=O)N(Cc1c(C)cc(C)[nH]c1=O)CC2)C1CCN(Cc2ccccc2)CC1	≤ 10
CC[C@@H](c1scc(C(=O)NCc2c(C)cc(C)[nH]c2=O)c1C)C1CCN(Cc2ccc(Cl)cn2)CC1	≤ 10
CC[C@@H](c1sc2c(c1C)CN(C(=O)c1c(C)cc(C)[nH]c1=O)CC2)C1CCN(Cc2ccccn2)CC1	≤ 10
Cc1cc(C)c(CN2CCCc3sc([C@H](C)C4CCN(CC5CCCCC5)CC4)c(C)c3C2)c(=O)[nH]1	≤ 10

The remaining lines, values ahead:

IC50 [nM]	Compound
≤ 10	Cc1cc(C)c(CN2CCCc3sc([C@H](C)C4CCN(Cc5ccccn5)CC4)c(C)c3C2)c(=O)[nH]1
≤ 10	CC[C@@H](c1sc2c(c1C)CN(Cc1c(C)cc(C)[nH]c1=O)CC2)C1CCN(Cc2ccnc(OC)c2)CC1
